Laboratory results taken from ChEMBL document CHEMBL3507680, “University of Dundee, Gates Library screen for HepG2 cell viability”.

Assay: Human HepG2 cell viability assay in 384 well format
Assay type: toxicity, cell-based
Set-up: dose 125 nL, time 70.5 hour; cytotoxicity at 70.5 h: concentration not given beside the values
Settings: HepG2 cells, read-out: Inhibition

SMILES: COCc1csc(NC(=O)NCc2ccccn2)n1
- cytotoxicity at 70.5 h: 5.11%

SMILES: Cc1c(NCC(C)(C)C)cccc1C(=O)N(C)Cc1ncnn1C
- cytotoxicity at 70.5 h: 21%

SMILES: Cc1cc(NC(=O)CNC(C)(C)c2ccccc2)on1
- cytotoxicity at 70.5 h: 17.8%

SMILES: O=C(CN1CCN(c2ccnc3c(F)ccc(F)c23)CC1)N1CCCC1
- cytotoxicity at 70.5 h: 8.2%

SMILES: O=C(c1cccnc1OCC(F)(F)F)N1CCCn2ncnc21
- cytotoxicity at 70.5 h: 14.8%

SMILES: O=C(c1ccc(-c2ccccc2)[nH]c1=O)N1CCCn2ncnc21
- cytotoxicity at 70.5 h: -9.78%

SMILES: CC(C)COCCC(=O)Nc1c(-c2ccc(F)cc2)ncn1C
- cytotoxicity at 70.5 h: -2.98%

SMILES: Cc1ncc2c(n1)CN(CC(O)COc1ccc(C#N)cc1)CC2 (stereo not given)
- cytotoxicity at 70.5 h: -3.74%

SMILES: Cn1cnc(-c2ccc(F)cc2)c1NC(=O)CCNC(=O)C(C)(C)C
- cytotoxicity at 70.5 h: -7.61%

SMILES: CCNC(=O)C1CCCN1S(=O)(=O)c1sc(=O)[nH]c1C (stereo not given)
- cytotoxicity at 70.5 h: -4.2%

SMILES: CNC(=O)c1cccc(CCNc2ncc(Br)cn2)c1
- cytotoxicity at 70.5 h: 7.32%

SMILES: Fc1ccc(OC2CCN(Cc3nnc(-c4ccco4)o3)CC2)cc1
- cytotoxicity at 70.5 h: 18.9%

SMILES: COc1ncc(C)cc1NC(=O)COCC(F)(F)F
- cytotoxicity at 70.5 h: 2.73%

SMILES: COc1ncc(C)cc1NC(=O)CCc1ccccn1
- cytotoxicity at 70.5 h: 17.6%

SMILES: CCc1csc(NC(=O)NCc2ccccn2)n1
- cytotoxicity at 70.5 h: -2.4%

SMILES: COCc1csc(NC(=O)NCc2ncccc2C)n1
- cytotoxicity at 70.5 h: 0.235%

SMILES: O=C(Nc1ccccc1OCC(F)F)N[C@@H]1C=C[C@H](CO)C1
- cytotoxicity at 70.5 h: 4.97%

SMILES: NC(=O)c1cnc(NC2CCC(c3ccccc3)CC2)c(Cl)c1 (stereo not given)
- cytotoxicity at 70.5 h: -2.31%

SMILES: CN(c1ncc(C(N)=O)cc1Cl)C1CCC(c2ccccc2)CC1 (stereo not given)
- cytotoxicity at 70.5 h: -3.58%

SMILES: CC(COc1ccccc1F)NC(=O)N[C@@H]1C=C[C@H](CO)C1 (stereo not given in full)
- cytotoxicity at 70.5 h: -7.04%

SMILES: CN(Cc1ncnn1C)C(=O)c1ccccc1NCc1ccccc1
- cytotoxicity at 70.5 h: 8.8%

SMILES: Cc1nnc(CN2CCC(Oc3ccc(C)c(C)c3)CC2)o1
- cytotoxicity at 70.5 h: -4.89%

SMILES: COc1ccc(-c2cnc(CN3CCCC3CO)o2)cc1 (stereo not given)
- cytotoxicity at 70.5 h: 7.93%

SMILES: CC(CNS(N)(=O)=O)c1ccc(F)c(F)c1 (stereo not given)
- cytotoxicity at 70.5 h: 3.38%

SMILES: COCCOc1ncccc1C(=O)N1CCCn2ncnc21
- cytotoxicity at 70.5 h: -5.4%

SMILES: COCCN(Cc1ccccc1)c1cc(C)ncn1
- cytotoxicity at 70.5 h: -6.25%

SMILES: COCc1nc(C(=O)N(Cc2ccccc2)CC(C)C(=O)O)cs1 (stereo not given)
- cytotoxicity at 70.5 h: -4.63%

SMILES: COCCN(CC(C)C)c1cc(C)ncn1
- cytotoxicity at 70.5 h: 6.75%

SMILES: COc1cccc2[nH]cc(CCNC(=O)N3CCCC3CO)c12 (stereo not given)
- cytotoxicity at 70.5 h: 2.83%

SMILES: OCC1CCCN1c1cc(NCCc2ccccn2)ncn1 (stereo not given)
- cytotoxicity at 70.5 h: 14.5%

SMILES: Cn1ccnc1CN(Cc1cccnc1)CC1CCCO1 (stereo not given)
- cytotoxicity at 70.5 h: -8.2%

SMILES: CN(C)C(=O)C1CCCN1CCCNC(=O)Cc1ccccc1F (stereo not given)
- cytotoxicity at 70.5 h: -16.1%

SMILES: CCCS(=O)(=O)NC1CCN(c2cccc(F)c2C#N)CC1
- cytotoxicity at 70.5 h: -19.1%

SMILES: O=C(NCCNc1ncccn1)N1CCCC1c1ccncc1 (stereo not given)
- cytotoxicity at 70.5 h: 1.65%

SMILES: COc1ccc(C2CCCN2C(=O)NCCNc2ccccn2)cc1 (stereo not given)
- cytotoxicity at 70.5 h: -19.3%

SMILES: O=C(NCC1CC1)C1CSCN1S(=O)(=O)c1ccccc1 (stereo not given)
- cytotoxicity at 70.5 h: -15.1%

SMILES: Cc1cc(N2CCC(N(C)C(=O)c3ccc(C#N)cc3)CC2)nc(C)n1
- cytotoxicity at 70.5 h: -7.65%

SMILES: Cc1cc(N2CCC(N(C)C(=O)c3ccccc3F)CC2)nc(C)n1
- cytotoxicity at 70.5 h: 15.8%

SMILES: OCC1CCCN1c1cc(NCc2cc3ccccc3o2)ncn1 (stereo not given)
- cytotoxicity at 70.5 h: -18.3%

SMILES: OCC1CCCN1c1cc(NCCc2ccsc2)ncn1 (stereo not given)
- cytotoxicity at 70.5 h: -15.1%

SMILES: OCC1CCCN1c1cc(NCCNc2cccnn2)ncn1 (stereo not given)
- cytotoxicity at 70.5 h: -6.7%

SMILES: CSCC(CCO)NC(=O)Nc1ccc(Br)cc1 (stereo not given)
- cytotoxicity at 70.5 h: -11.8%

SMILES: Cc1cn(-c2ccccc2)nc1NS(=O)(=O)c1ccc(C(=O)O)cc1F
- cytotoxicity at 70.5 h: -18%

SMILES: Cc1cn(-c2ccccc2)nc1NS(=O)(=O)c1ccc(C(=O)O)cc1
- cytotoxicity at 70.5 h: 10.8%

SMILES: N#Cc1cc(F)c(N2CCC(NS(=O)(=O)c3cccs3)CC2)c(F)c1
- cytotoxicity at 70.5 h: -20%

SMILES: O=C(NCCCn1nc2ccccn2c1=O)NCC(C1CC1)C1CC1
- cytotoxicity at 70.5 h: -12.3%

SMILES: O=C(NCCCn1nc2ccccn2c1=O)NC(C1CC1)C1CC1
- cytotoxicity at 70.5 h: -16.5%

SMILES: Cc1n[nH]c(C)c1C1CCCN1C(=O)NCC(=O)Nc1ccccc1 (stereo not given)
- cytotoxicity at 70.5 h: 6.46%

SMILES: Cc1cc(CN(Cc2cccnc2)CC2CCCO2)on1 (stereo not given)
- cytotoxicity at 70.5 h: -1.62%

SMILES: Cc1cnc(CN2CCN(c3nc(C)cs3)C(C)C2)cn1 (stereo not given)
- cytotoxicity at 70.5 h: -16.4%

SMILES: Cc1n[nH]c(C)c1C1CCCN1C(=O)NC(C)(C)C (stereo not given)
- cytotoxicity at 70.5 h: 4.46%

SMILES: Cc1n[nH]c(C)c1C1CCCN1C(=O)Cc1cccc(F)c1 (stereo not given)
- cytotoxicity at 70.5 h: -19.6%

SMILES: CCCN1CCC(CNC(=O)N2CCCC2c2c(C)n[nH]c2C)CC1 (stereo not given)
- cytotoxicity at 70.5 h: 3.87%

SMILES: CC1CN(C)c2ccccc2CN1C(=O)c1ccncc1F (stereo not given)
- cytotoxicity at 70.5 h: 35%

SMILES: Cc1nc(C)n(CC2CN(CCn3cccn3)CCO2)n1 (stereo not given)
- cytotoxicity at 70.5 h: 31.9%

SMILES: Cc1ccc(OCCC(=O)NC(C)c2ccncc2)cc1 (stereo not given)
- cytotoxicity at 70.5 h: -2.16%

SMILES: CS(=O)(=O)NCC1CCCN(C(=O)c2ccc3c(c2)CCC3)C1 (stereo not given)
- cytotoxicity at 70.5 h: 3.24%

SMILES: Cc1nccn1-c1cc(CNC(=O)c2ccnc(N(C)C)c2)ccn1
- cytotoxicity at 70.5 h: -10.5%

SMILES: CC(C)S(=O)(=O)NCC1CCCN(C(=O)c2ccc(Cl)cc2)C1 (stereo not given)
- cytotoxicity at 70.5 h: 6.86%

SMILES: Cc1occc1C(=O)N1CCCN(Cc2cnn(C(C)C)c2)CC1
- cytotoxicity at 70.5 h: -6.65%

SMILES: Cc1nc(C)n(CC2CN(CCCc3ccccc3)CCO2)n1 (stereo not given)
- cytotoxicity at 70.5 h: -4.71%

SMILES: COc1ccc(CCN2CCOC(Cn3nc(C)nc3C)C2)cc1 (stereo not given)
- cytotoxicity at 70.5 h: -5.86%

SMILES: Cc1cc(C)cc(C(=O)Nc2ccc(CC3CC(=O)NC3=O)cc2)c1 (stereo not given)
- cytotoxicity at 70.5 h: -1.28%

SMILES: C1CN(c2nc(C3CC3)ns2)CCO1
- cytotoxicity at 70.5 h: -5.18%

SMILES: O=C(NCCOc1ncc(Cl)cc1Cl)c1ccoc1
- cytotoxicity at 70.5 h: 21.7%

SMILES: O=C(NCCOc1ncc(Cl)cc1Cl)c1cccnc1
- cytotoxicity at 70.5 h: 8.03%

SMILES: CCc1ccc(C(=O)Nc2ccc(CC3CC(=O)NC3=O)cc2)s1 (stereo not given)
- cytotoxicity at 70.5 h: -4%

SMILES: CCc1ccc(CNCC2CCN(CCO)CC2)cc1
- cytotoxicity at 70.5 h: 16.5%

SMILES: Cc1ccc2c(c1)OC1(NC2=O)C(=O)N(C)c2ccccc21 (stereo not given)
- cytotoxicity at 70.5 h: 16.7%

SMILES: Cc1ccc(CNC(c2ccc(F)cc2)c2nccn2C)o1 (stereo not given)
- cytotoxicity at 70.5 h: -7.32%

SMILES: Cc1cc(C(C)NC(=O)CCN2C(=O)c3ccccc3C2=O)c(C)o1 (stereo not given)
- cytotoxicity at 70.5 h: 28.1%

SMILES: O=C(NCCCn1cncn1)c1ccc(-c2ccco2)[nH]c1=O
- cytotoxicity at 70.5 h: -3.92%

SMILES: O=C(NCCCn1cncn1)c1ccc(-c2ccccc2)[nH]c1=O
- cytotoxicity at 70.5 h: -11.4%

SMILES: Cc1cc(C(=O)NCC2(C(N)=O)CCOCC2)nn1C(C)(C)C
- cytotoxicity at 70.5 h: -6.96%

SMILES: CC(C)(C)n1nc(C(=O)NCC2(C(N)=O)CCOCC2)cc1C1CC1
- cytotoxicity at 70.5 h: -22.5%

SMILES: CC(C)(C)n1nc(C2CC2)cc1C(=O)NCC1(C(N)=O)CCOCC1
- cytotoxicity at 70.5 h: 22.2%

SMILES: Cc1nn(C(C)(C)C)c(C)c1C(=O)NCC1(C(N)=O)CCOCC1
- cytotoxicity at 70.5 h: -8.76%

SMILES: CC1CN(C)CCN1C(=O)c1cnn(-c2ccc(Cl)cc2)c1 (stereo not given)
- cytotoxicity at 70.5 h: 19.4%

SMILES: CCC(C)NC(=O)c1ccc(NC(=O)CCc2ccncc2)c(C)c1 (stereo not given)
- cytotoxicity at 70.5 h: -3.96%

SMILES: Cc1noc(C)c1CSc1nc(=O)ccn1C(C)C
- cytotoxicity at 70.5 h: -3.07%

SMILES: Cc1nc(CN2CCCC(N(C)c3cnc4ccccc4n3)C2)no1 (stereo not given)
- cytotoxicity at 70.5 h: 20.5%

SMILES: O=C(NCc1ccccc1CO)C1COc2ccccc21 (stereo not given)
- cytotoxicity at 70.5 h: -0.572%

SMILES: CS(=O)(=O)c1nccn1Cc1ccncc1
- cytotoxicity at 70.5 h: -4.41%

SMILES: CC(CC(=O)N1CCCS1(=O)=O)c1ccccc1C(F)(F)F (stereo not given)
- cytotoxicity at 70.5 h: 3.27%

SMILES: CCC(C)NC(=O)c1ccc(NC(=O)CCCn2cncn2)c(C)c1 (stereo not given)
- cytotoxicity at 70.5 h: 14.8%
